Legend:
[1] = system: undifferentiated NANOG^iCasp9-YFP hPSCs; test: Viability of undifferentiated NANOG^iCasp9-YFP hPSCs after AP20187 (FACS, alamar blue; dose and time course); format: cell-based, human
Description: FIG. 9: Efficacy of the NANOG^iCasp9-YFP safety switch (related to FIG. 3). A) Undifferentiated NANOG^iCasp9-YFP hPSCs were treated with AP20187 at the indicated concentrations for 24 hours, and then the percentage of viable remaining cells was subsequently analyzed using FACS analysis (left) and alamar blue staining (right). For the FACS analysis, the percentage of cells shown represents viable cells (i.e., DAPI-negative cells obtained after DAPI staining) that were then gated for YFP+ (i.e., NANOG^+) cells. For the alamar blue analysis, wild-type hPSCs were used as a negative control. […] AP20187 doses equal to or greater than 100 nM may prevent efficient killing of NANOG^iCasp9-YFP hPSCs by considerably downregulating NANOG. Gene expression is depicted normalized to the reference gene YWHAZ (i.e., YWHAZ=1.0). C) Undifferentiated NANOG^iCasp9-YFP hPSCs were treated with the indicated doses of AP20187 for various lengths of time (6, 12, 24, 48, 72 hours) and then alamar blue assay was performed immediately thereafter to quantify the extent of cell death. […] D) Immunofluorescent imaging of NANOG^iCasp9-YFP hESCs in the undifferentiated state and after differentiation into day 6 sclerotome as marked by TWIST1 expression, both without and with treatment of cells with 1 nM AP20187 for 24 hours. […] The following marker genes were assessed in each respective cell-type: sclerotome (bone) progenitors (TWIST1, SOX9, PAX1, PAX9), liver progenitors (SOX17, HNF4A, AFP, TBX3), and forebrain (neural) progenitors (PAX6, FOXG1, OTX2, SIX3). F) Further validation of NANOG^iCasp9-YFP using a simulated mixed cell culture assay. NANOG^iCasp9-YFP undifferentiated hPSCs and hPSC-derived derived sclerotome cells were mixed at a 3:7 ratio, respectively. Mixed cells were treated with AP20187, and 24 hours post-treatment, FACS analysis was done to assess remaining NANOG^iCasp9-YFP hPSCs in culture.
Alamar Blue proliferation assay—hESCs were cultured in mTeSR1 (in the presence or absence of AP20187 at the indicated concentrations). After 24 hours of AP20187 treatment, mTeSR1 media with Alamar Blue (concentration based on manufacturer's protocol) was changed for both untreated and treated samples. A control well containing media+Alamar Blue was used to assess blank wells and to therefore to measure and subtract fluorescence noise.
Flow cytometric quantification of viable cells—NANOG^iCasp9-YFP hESCs were dissociated into single cells with Accutase and 1×10^6 cells were plated per well in a 6-well plate pre-coated with Matrigel. […] Subsequently, to quantify the percentage of surviving cells, the cultures were dissociated with TrypLE Express. […] YFP^+ (i.e., NANOG^+) cells were analyzed (Beckman Coulter CytoFlex Analyzer) to count live cells for both untreated and AP20187-treated groups. […]

[2] = system: NANOG^iCasp9-YFP;ACTB^HSV-TK-mPlum hPSCs transplanted subcutaneously; test: Teratoma formation after AP20 pre-treatment of dual-safeguard hPSCs; format: in vivo, NOD-SCID Il2rg^−/− mice; conditions: pre-treatment with 1 nM AP20 before transplantation
Description: FIG. 5: Implementation of the ACTB^TK-mPlum safety switch. A) NANOG^iCasp9-YFP;ACTB^TK-mPlum hESCs were treated with ganciclovir (or left untreated) for 24 hours, and subsequently ganciclovir was withdrawn and hESCs were cultured for 1 week in mTeSR1 to detect any surviving cells and to allow them to regrow. […] N.D.=not detected. B) NANOG^iCasp9-YFP;ACTB^TK-mPlum hESCs were differentiated into day 6 liver, sclerotome and neural progenitors and treated with ganciclovir at the indicated doses for the last 24 hours of differentiation. Cell survival was analyzed by counting at day 6 of differentiation. C) 10^6 NANOG^iCasp9-YFP; ACTB^TK-mPlum hESCs engineered to express CAG-AkaLuciferase were treated with control media or 1 nM AP20187 for 24 hours, and then subcutaneously transplanted into the right and left dorsal flanks of NOD-SCID Il2rg^−/− mice (10^6 cells per flank). […] Total flux (photons/sec) was measured for each animal and were averaged.
In vivo teratoma formation. […] Teratoma growth was monitored throughout the duration of the experiment via visual inspection and bioluminescent imaging.
Bioluminescent imaging. […] Subsequent image analysis was done in Aura with regions of interest (ROIs) drawn for each mouse to calculate Total Flux (photons/sec) in order to quantify teratoma growth over time.

## CC[C@H](C(=O)N1CCCC[C@H]1C(=O)O[C@H](CCc1ccc(OC)c(OC)c1)c1cccc(OCC(=O)NCC(CNC(=O)COc2cccc([C@@H](CCc3ccc(OC)c(OC)c3)OC(=O)[C@@H]3CCCCN3C(=O)[C@@H](CC)c3cc(OC)c(OC)c(OC)c3)c2)CN(C)C)c1)c1cc(OC)c(OC)c(OC)c1 [AP20]
[1]
  concentration that activates the NANOG^iCasp9-YFP system: 1 nM
  duration of treatment that sufficed to eliminate hESCs: 12 h
[1]; 1 nM AP20187
  time to activity / cell death: ≤ 12 h
[1]; undifferentiated NANOG^iCasp9-YFP hPSCs
  IC50: 0.065 nM
[2]
  teratoma formation in vivo: prevented them from forming teratomas in vivo

Reference: patent US20230085945A1, “ORTHOGONAL SAFETY SWITCHES TO ELIMINATE GENETICALLY ENGINEERED CELLS” (The Board of Trustees of the Leland Stanford Junior …, priority 2020, published 2023)
